Results as given in BindingDB's records for doi:10.3109/14756366.2011.636362 (Aristotle University of Thessaloniki, 2013).

The compounds below were run against Gag-Pol polyprotein (Human immunodeficiency virus type 1 group M subtype B (isolate HXB2), UniProt P04585) (assay: HIV-1 RT Activity Assay). Conditions: pH 7.8; 37 °C.
Experimental: HIV-1 Reverse Transcriptase Activity was measured using the colorimetric photometric immunoassay kit provided by Roche. Estimation of RT activity is achieved by quantification of the DNA synthesized by RT in a known period of time. Incubation was performed for 2 h at 37°C. PolyA:oligodT RNA template:primer hybrid at a concentration of 2.2 μg/ml was incubated with 20 nMof purified recombinant HIV-1 reverse transcriptase in a 50 μL incubation mixture containing 50 mM Tris-HCl pH 7.8, 160 mM KCl, 11 mM MgCl2, 5.3 mM DTT, 0.5 mM EDTA, 0.3% Triton-X 100 and 10 μM dTTP (unless otherwise mentioned) in the presence of digoxigeninconjugated dUTP (dUTP-DIG) and biotin-conjugateddUTP (dUTP-biotin). In a following step, the synthesised biotin-DIG-labelled DNA was bound to the surface of streptavidin-coated ELISA-plate wells. After washing out the unbound material, an antibody to digoxigenin, conjugated to peroxidase (anti-DIG-POD), was added and bound to the digoxigenin-labelled nucleotides. After a washing step and addition of the appropriate substrate, peroxidase catalyzed the transformation of the substrate, ABTS, to a yellow coloured reaction product. 15 min after ABTS addition, the coloured product was measured using a microtitre plate (ELISA) reader. For the estimation of inhibitory action of the compounds, reverse transcriptase was incubated in the presence of the potential inhibitor for 45 min at room temperature before addition of its substrates (pre-incubation).
`O=C1CSC(c2c(Cl)cccc2Cl)N1c1nc2c(Cl)cccc2s1` (stereo not given) [3-(4-Chlorobenzo[d]thiazol-2-yl)-2-(2,6-dichlorophenyl)thiazolidin-4-one (6)] gave an IC50 greater than 40 µM.
`O=C1CSC(c2c(F)cccc2F)N1c1nc2c(Cl)cccc2s1` (stereo not given) [3-(4-Chlorobenzo[d]thiazol-2-yl)-2-(2,6-difluorophenyl)thiazolidin-4-one (8)] showed an IC50 greater than 40 µM.
Work on `O=C1CSC(c2c(F)cccc2Cl)N1c1nc2c(Cl)cccc2s1` (stereo not given) [3-(4-Chlorobenzo[d]thiazol-2-yl)-2-(2-chloro-6-fluorophenyl)thiazolidin-4-one (7)] yielded an IC50 of 0.04 µM.
`COc1cccc2sc(N3C(=O)CSC3c3c(Cl)cccc3Cl)nc12` (stereo not given) [3-(4-Methoxybenzo[d]thiazol-2-yl)-2-(2,6-dichlorophenyl)thiazolidin-4-one (15)] was tested, and the IC50 was 3 µM.
In the case of `COc1cccc2sc(N3C(=O)CSC3c3c(F)cccc3Cl)nc12` (stereo not given) [3-(4-Methoxybenzo[d]thiazol-2-yl)-2-(2-chloro-6-fluorophenyl)thiazolidin-4-one (16)], the IC50 is reported as greater than 40 µM.
Work on `O=C1CSC(c2c(Cl)cccc2Cl)N1c1nc2ccc(Cl)cc2s1` (stereo not given) [3-(6-Chlorobenzo[d]thiazol-2-yl)-2-(2,6-dichlorophenyl)thiazolidin-4-one (3)] yielded an IC50 greater than 40 µM.
Compound `O=C1CSC(c2c(F)cccc2Cl)N1c1nc2ccc(Cl)cc2s1` (stereo not given) [3-(6-Chlorobenzo[d]thiazol-2-yl)-2-(2-chloro-6-fluorophenyl)thiazolidin-4-one (4)] has an IC50 greater than 40 µM.
Compound `CCOc1ccc2nc(N3C(=O)CSC3c3c(F)cccc3F)sc2c1` (stereo not given) [3-(6-Ethoxybenzo[d]thiazol-2-yl)-2-(2,6-difluorophenyl)thiazolidin-4-one (19)] has an IC50 greater than 40 µM.
Work on `CCOc1ccc2nc(N3C(=O)CSC3c3c(F)cccc3Cl)sc2c1` (stereo not given) [3-(6-Ethoxybenzo[d]thiazol-2-yl)-2-(2-chloro-6-fluorophenyl)thiazolidin-4-one (18)] yielded an IC50 of 3.4 µM.
Work on `O=C1CSC(c2c(Cl)cccc2Cl)N1c1nc2ccc(F)cc2s1` (stereo not given) [3-(6-Fluorobenzo[d]thiazol-2-yl)-2-(2,6-dichlorophenyl)thiazolidin-4-one (9)] yielded an IC50 of 0.25 µM.
With `COc1ccc2nc(N3C(=O)CSC3c3c(Cl)cccc3Cl)sc2c1` (stereo not given) [3-(6-Methoxybenzo[d]thiazol-2-yl)-2-(2,6-dichlorophenyl)thiazolidin-4-one (12)] the IC50 was greater than 40 µM.
Compound `COc1ccc2nc(N3C(=O)CSC3c3c(F)cccc3F)sc2c1` (stereo not given) [3-(6-Methoxybenzo[d]thiazol-2-yl)-2-(2,6-difluorophenyl)thiazolidin-4-one (14)] has an IC50 greater than 40 µM.
Compound `COc1ccc2nc(N3C(=O)CSC3c3c(F)cccc3Cl)sc2c1` (stereo not given) [3-(6-Methoxybenzo[d]thiazol-2-yl)-2-(2-chloro-6-fluorophenyl)thiazolidin-4-one (13)] has an IC50 greater than 40 µM.
Work on `O=C1CSC(c2c(F)cccc2F)N1c1nc2ccccc2s1` (stereo not given) [3-(Benzo[d]thiazol-2-yl)-2-(2,6-difluorophenyl)thiazolidin-4-one (1)] yielded an IC50 greater than 40 µM.
`O=C1CSC(c2c(F)cccc2Cl)N1c1nc2ccccc2s1` (stereo not given) [3-(Benzo[d]thiazol-2-yl)-2-(2-chloro-6-fluorophenyl)thiazolidin-4-one (2)] gave an IC50 greater than 40 µM.
